Measurements from patent US9926302B2, “Heteroaryl substituted heterocyclyl sulfones” (priority 2014, dated 2018).

Biological target: T1, Human CaV2.2 channels (Homo sapiens, UniProt Q00975)
T1 construct: expressed in transfected cells
Experiment: Fluorescence assay for CaV2.2 channels using potassium depolarization to induce channel opening (FLIPR, Fluo 4)
Type: cell-based
Conditions: alternative assay buffer 30 mM KCl (inactivated channel state), HEK293 cells stably expressing human CaV2.2; for Activity Category: %-Inhib (CaV2.2) @3 μM @30 mM KCl: 3 μM test compound; for inhibition at 3 µM: HEK293, 3 μM test compound, read-out: Activity Category: %-Inhib (CaV2.2) @3 μM @30 mM KCl
Procedure, shortened: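 HEK293 cells stably co-expressing CaV2.2 with alpha2-delta and beta subunits plus Kir2.3, loaded with 2 μM Fluo 4 and pre-incubated 15 min at 25° C with compound in 1 mM or 30 mM KCl buffer (pH 7.4; latter promotes inactivated state). Depolarized by KCl addition; peak fluorescence amplitude normalized to baseline gives inhibition.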

T1 sequence (P54289 947-1103): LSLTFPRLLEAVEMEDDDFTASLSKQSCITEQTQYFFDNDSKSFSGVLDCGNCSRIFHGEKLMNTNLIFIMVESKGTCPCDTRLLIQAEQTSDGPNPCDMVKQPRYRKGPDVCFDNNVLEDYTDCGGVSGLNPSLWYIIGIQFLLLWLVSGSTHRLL
T1 sequence (P54289 25-946): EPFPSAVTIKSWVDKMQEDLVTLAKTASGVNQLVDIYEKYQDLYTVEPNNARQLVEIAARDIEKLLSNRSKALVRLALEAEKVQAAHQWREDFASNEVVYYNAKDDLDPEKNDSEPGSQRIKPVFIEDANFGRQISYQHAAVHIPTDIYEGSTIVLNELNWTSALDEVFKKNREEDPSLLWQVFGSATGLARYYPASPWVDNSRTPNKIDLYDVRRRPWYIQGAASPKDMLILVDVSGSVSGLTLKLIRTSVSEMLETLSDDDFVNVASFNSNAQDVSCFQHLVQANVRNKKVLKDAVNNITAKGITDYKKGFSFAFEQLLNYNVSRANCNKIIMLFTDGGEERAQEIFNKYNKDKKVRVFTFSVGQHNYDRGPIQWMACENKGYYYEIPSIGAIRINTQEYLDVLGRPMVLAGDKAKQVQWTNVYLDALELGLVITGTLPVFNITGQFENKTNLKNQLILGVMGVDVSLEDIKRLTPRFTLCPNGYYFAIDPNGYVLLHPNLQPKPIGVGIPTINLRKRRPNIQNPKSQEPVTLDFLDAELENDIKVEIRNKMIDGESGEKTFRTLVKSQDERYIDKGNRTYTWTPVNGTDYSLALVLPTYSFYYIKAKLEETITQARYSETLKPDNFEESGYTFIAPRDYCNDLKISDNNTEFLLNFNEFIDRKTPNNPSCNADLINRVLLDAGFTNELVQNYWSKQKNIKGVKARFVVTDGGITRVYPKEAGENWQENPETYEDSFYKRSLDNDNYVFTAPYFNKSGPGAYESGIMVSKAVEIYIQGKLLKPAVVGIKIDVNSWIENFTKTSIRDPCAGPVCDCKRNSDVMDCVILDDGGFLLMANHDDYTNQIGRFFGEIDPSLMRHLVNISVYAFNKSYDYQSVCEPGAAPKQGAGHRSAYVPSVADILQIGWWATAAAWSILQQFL
T1 sequence (P54284 whole entry, further chain): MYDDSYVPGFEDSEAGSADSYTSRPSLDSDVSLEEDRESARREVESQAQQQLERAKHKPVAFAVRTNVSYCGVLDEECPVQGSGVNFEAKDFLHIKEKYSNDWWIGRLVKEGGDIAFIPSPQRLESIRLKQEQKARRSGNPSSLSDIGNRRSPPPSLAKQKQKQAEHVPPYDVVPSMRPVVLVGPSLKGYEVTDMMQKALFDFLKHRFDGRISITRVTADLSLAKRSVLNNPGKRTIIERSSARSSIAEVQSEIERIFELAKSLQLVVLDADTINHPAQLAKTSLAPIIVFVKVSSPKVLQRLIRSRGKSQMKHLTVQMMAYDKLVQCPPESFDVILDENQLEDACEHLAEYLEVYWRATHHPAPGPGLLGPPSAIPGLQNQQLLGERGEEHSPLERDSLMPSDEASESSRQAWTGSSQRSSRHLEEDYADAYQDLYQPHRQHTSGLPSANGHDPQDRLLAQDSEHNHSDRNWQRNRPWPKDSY
T1 sequence (Q00975 whole entry): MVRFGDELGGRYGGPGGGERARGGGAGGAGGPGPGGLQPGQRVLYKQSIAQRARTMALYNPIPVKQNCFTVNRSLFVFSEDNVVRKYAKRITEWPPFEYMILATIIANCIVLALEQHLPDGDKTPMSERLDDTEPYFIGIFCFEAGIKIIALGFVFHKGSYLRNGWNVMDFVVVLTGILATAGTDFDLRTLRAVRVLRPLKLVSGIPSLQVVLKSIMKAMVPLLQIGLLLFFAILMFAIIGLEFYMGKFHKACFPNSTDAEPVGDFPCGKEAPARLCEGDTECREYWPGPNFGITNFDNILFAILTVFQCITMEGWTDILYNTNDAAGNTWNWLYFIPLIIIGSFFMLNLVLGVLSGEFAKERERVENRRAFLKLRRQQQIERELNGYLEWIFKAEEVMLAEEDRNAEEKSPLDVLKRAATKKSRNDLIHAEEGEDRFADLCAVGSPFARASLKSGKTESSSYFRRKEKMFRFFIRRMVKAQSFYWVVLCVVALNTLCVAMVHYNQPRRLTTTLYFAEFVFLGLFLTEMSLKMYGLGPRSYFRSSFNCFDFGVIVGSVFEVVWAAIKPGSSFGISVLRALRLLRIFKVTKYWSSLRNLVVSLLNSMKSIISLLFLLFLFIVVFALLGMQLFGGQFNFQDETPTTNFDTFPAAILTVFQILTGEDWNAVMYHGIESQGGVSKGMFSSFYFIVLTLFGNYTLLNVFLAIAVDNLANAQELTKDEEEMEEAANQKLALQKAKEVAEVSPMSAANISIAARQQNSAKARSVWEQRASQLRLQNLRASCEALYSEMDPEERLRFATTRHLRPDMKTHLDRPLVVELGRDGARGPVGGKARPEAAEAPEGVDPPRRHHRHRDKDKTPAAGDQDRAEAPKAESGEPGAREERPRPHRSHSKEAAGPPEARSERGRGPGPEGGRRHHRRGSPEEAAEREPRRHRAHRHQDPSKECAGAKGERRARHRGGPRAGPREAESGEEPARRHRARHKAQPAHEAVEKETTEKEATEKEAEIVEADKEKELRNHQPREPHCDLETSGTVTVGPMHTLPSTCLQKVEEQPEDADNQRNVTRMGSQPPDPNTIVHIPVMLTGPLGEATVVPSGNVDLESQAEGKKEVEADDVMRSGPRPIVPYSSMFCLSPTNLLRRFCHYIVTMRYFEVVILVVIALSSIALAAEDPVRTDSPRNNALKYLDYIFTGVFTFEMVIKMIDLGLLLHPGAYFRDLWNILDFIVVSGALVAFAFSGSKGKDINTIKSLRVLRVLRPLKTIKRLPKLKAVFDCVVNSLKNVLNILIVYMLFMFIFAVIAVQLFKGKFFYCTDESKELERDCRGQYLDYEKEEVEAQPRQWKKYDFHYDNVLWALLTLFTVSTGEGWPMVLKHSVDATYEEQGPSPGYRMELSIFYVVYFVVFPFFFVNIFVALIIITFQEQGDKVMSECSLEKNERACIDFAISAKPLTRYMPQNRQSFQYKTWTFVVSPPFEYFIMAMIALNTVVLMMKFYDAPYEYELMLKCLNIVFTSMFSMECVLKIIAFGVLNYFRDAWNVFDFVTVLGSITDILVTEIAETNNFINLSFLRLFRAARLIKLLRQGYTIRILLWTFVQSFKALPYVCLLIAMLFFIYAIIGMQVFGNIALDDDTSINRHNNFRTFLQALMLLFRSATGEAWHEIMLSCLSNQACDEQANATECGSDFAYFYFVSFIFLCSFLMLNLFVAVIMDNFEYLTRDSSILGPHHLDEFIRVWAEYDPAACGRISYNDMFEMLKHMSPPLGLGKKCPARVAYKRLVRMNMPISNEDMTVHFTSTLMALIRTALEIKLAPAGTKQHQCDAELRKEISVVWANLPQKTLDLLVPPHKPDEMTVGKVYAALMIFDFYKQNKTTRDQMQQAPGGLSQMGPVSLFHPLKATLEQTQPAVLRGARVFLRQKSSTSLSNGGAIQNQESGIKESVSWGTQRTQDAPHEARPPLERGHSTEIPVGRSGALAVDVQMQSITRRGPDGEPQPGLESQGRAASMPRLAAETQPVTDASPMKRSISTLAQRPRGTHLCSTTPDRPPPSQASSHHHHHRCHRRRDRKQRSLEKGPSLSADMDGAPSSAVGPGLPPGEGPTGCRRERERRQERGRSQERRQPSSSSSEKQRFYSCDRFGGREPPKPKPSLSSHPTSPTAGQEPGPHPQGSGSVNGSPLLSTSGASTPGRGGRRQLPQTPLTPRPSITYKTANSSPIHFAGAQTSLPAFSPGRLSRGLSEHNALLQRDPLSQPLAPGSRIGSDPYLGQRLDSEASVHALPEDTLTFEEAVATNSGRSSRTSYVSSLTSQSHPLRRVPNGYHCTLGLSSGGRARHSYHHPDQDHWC

Compound | Activity Category: %-Inhib (CaV2.2) @3 μM @30 mM KCl | inhibition at 3 µM [%]
COc1cc(OC(F)F)c(C2CC(C)(S(=O)(=O)c3cccc(C(F)(F)F)c3)CCO2)cn1 (centres unmarked) [SC-254, 4-(Difluoro-methoxy)-2-methoxy-5-[4-methyl-4-[[3-(trifluoromethyl)phenyl]sulfonyl]-tetrahydro-pyran-2-yl]-pyridine] | A (%-Inhibition >95%) | 
COc1ncc(C2CC(C)(S(=O)(=O)c3cccc(C(F)(F)F)c3)CCO2)cc1F (centres unmarked) [SC-255, 3-Fluoro-2-methoxy-5-[4-methyl-4-[[3-(trifluoromethyl)phenyl]sulfonyl]-tetrahydro-pyran-2-yl]-pyridine] |  | > 95
COc1ncc(C2CC(C)(S(=O)(=O)c3cccc(C(F)(F)F)c3)CCO2)cc1F (centres unmarked) [SC-256, 3-Fluoro-2-methoxy-5-[4-methyl-4-[[3-(trifluoromethyl)phenyl]sulfonyl]-tetrahydro-pyran-2-yl]-pyridine] | B (%-Inhibition >75% up to ≤95%) | 
COc1cc(F)c(C2CC(C)(S(=O)(=O)c3cccc(C(F)(F)F)c3)CCO2)cn1 (centres unmarked) [SC-257, 4-Fluoro-2-methoxy-5-[4-methyl-4-[[3-(trifluoromethyl)phenyl]sulfonyl]-tetrahydro-pyran-2-yl]-pyridine] |  | 75 to 95
COc1cc(F)c(C2CC(C)(S(=O)(=O)c3cccc(C(F)(F)F)c3)CCO2)cn1 (centres unmarked) [SC-258, 4-Fluoro-2-methoxy-5-[4-methyl-4-[[3-(trifluoromethyl)phenyl]sulfonyl]-tetrahydro-pyran-2-yl]-pyridine] | A (%-Inhibition >95%) | 
COc1cc(C#N)c(C2CC(C)(S(=O)(=O)c3cccc(C(F)(F)F)c3)CCO2)cn1 (centres unmarked) [SC-260, 2-Methoxy-5-[4-methyl-4-[[3-(trifluoromethyl)phenyl]sulfonyl]-tetrahydro-pyran-2-yl]-isonicotinonitrile] | A (%-Inhibition >95%) | 
COc1cc(C#N)c(C2CC(C)(S(=O)(=O)c3cccc(C(F)(F)F)c3)CCO2)cn1 (centres unmarked) [SC-261, 2-Methoxy-5-[4-methyl-4-[[3-(trifluoromethyl)phenyl]sulfonyl]-tetrahydro-pyran-2-yl]-isonicotinonitrile] | C (%-Inhibition >40% up to ≤75%) | 
Cc1cc(S(C)(=O)=O)cnc1C1CC(C)(S(=O)(=O)c2cccc(C(F)(F)F)c2)CCO1 (centres unmarked) [SC-262, 3-Methyl-5-methylsulfonyl-2-[4-methyl-4-[[3-(trifluoromethyl)phenyl]sulfonyl]-tetrahydro-pyran-2-yl]-pyridine] |  | 75 to 95
CC1(S(=O)(=O)c2cccc(C(F)F)c2)CCOC(c2ncc(S(C)(=O)=O)cc2Cl)C1 (centres unmarked) [SC-265, 3-Chloro-2-[4-[[3-(difluoro-methyl)-phenyl]sulfonyl]-4-methyl-tetrahydro-pyran-2-yl]-5-methylsulfonyl-pyridine] |  | 40 to 75
CC1(S(=O)(=O)c2cccc(C(F)(F)F)c2)CCOC(c2ncc(OC(F)F)cc2S(C)(=O)=O)C1 (centres unmarked) [SC-266, 5-(difluoromethoxy)-2-(4-methyl-4-((3-(trifluoromethyl)phenyl)sulfonyl)tetrahydro-2H-pyran-2-yl)-3-(methylsulfonyl)pyridine] |  | > 95
CC1(S(=O)(=O)c2cccc(C(F)(F)F)c2)CCOC(c2ncc(S(C)(=O)=O)cc2OC(F)F)C1 (centres unmarked) [SC-268, 3-(difluoromethoxy)-2-(4-methyl-4-((3-(trifluoromethyl)phenyl)sulfonyl)tetrahydro-2H-pyran-2-yl)-5-(methylsulfonyl)pyridine] |  | 75 to 95
CC1(S(=O)(=O)c2cccc(C(F)(F)F)c2)CCOC(c2ncc(S(C)(=O)=O)cc2OC(F)F)C1 (centres unmarked) [SC-269, 3-(difluoromethoxy)-2-(4-methyl-4-((3-(trifluoromethyl)phenyl)sulfonyl)tetrahydro-2H-pyran-2-yl)-5-(methylsulfonyl)pyridine] | A (%-Inhibition >95%) | 
CC1(S(=O)(=O)c2cccc(C(F)(F)F)c2)CCOC(c2ncc(S(C)(=O)=O)cc2C2CC2)C1 (centres unmarked) [SC-270, 3-cyclopropyl-2-(4-methyl-4-(3-(trifluoromethyl)phenylsulfonyl)tetrahydro-2H-pyran-2-yl)-5-(methylsulfonyl)pyridine] |  | 75 to 95
CC(C)Oc1ccc(C2CC(C)(S(=O)(=O)c3cccc(C(F)(F)F)c3)CCO2)cn1 (centres unmarked) [SC-300, 2-Isopropoxy-5-[4-methyl-4-[[3-(trifluoromethyl)phenyl]sulfonyl]-tetrahydro-pyran-2-yl]-pyridine] |  | > 95
CC1(S(=O)(=O)c2cccc(C(F)(F)F)c2)CCOC(c2cnc(C(F)(F)F)nc2)C1 (centres unmarked) [SC-304, 5-[4-Methyl-4-[[3-(trifluoromethyl)phenyl]sulfonyl]-tetrahydro-pyran-2-yl]-2-(trifluoromethyl)-pyrimidine] |  | 75 to 95
CC1(S(=O)(=O)c2cccc(C(F)(F)F)c2)CCOC(c2cnc(C(F)(F)F)nc2)C1 (centres unmarked) [SC-305, 5-[4-Methyl-4-[[3-(trifluoromethyl)phenyl]sulfonyl]-tetrahydro-pyran-2-yl]-2-(trifluoromethyl)-pyrimidine] | A (%-Inhibition >95%) | 

Compound | Activity Category: %-Inhib (CaV2.2) @3 μM @30 mM KCl | inhibition at 3 µM [%]
CC1(S(=O)(=O)c2cccc(C(F)(F)F)c2)CCOC(c2ccc(C(F)(F)F)cn2)C1 (centres unmarked) [SC-309, 2-[4-Methyl-4-[[3-(trifluoromethyl)phenyl]sulfonyl]-tetrahydro-pyran-2-yl]-5-(trifluoromethyl)-pyridine] |  | > 95
CCC1(S(=O)(=O)c2cccc(C(F)(F)F)c2)CCOC(c2cccnc2C)C1 (centres unmarked) [SC-312, 3-[4-Ethyl-4-[[3-(trifluoromethyl)phenyl]sulfonyl]-tetrahydro-pyran-2-yl]-2-methyl-pyridine] |  | 40 to 75
CC1(S(=O)(=O)c2cccc(C(F)(F)F)c2)CCOC(c2ccc(C(F)(F)F)nc2)C1 (centres unmarked) [SC-315, 5-[4-Methyl-4-[[3-(trifluoromethyl)phenyl]sulfonyl]-tetrahydro-pyran-2-yl]-2-(trifluoromethyl)-pyridine] |  | > 95
CCC1(S(=O)(=O)c2cccc(C(F)(F)F)c2)CCOC(c2ccc(C)nc2C)C1 (centres unmarked) [SC-317, 3-[4-Ethyl-4-[[3-(trifluoromethyl)phenyl]sulfonyl]-tetrahydro-pyran-2-yl]-2,6-dimethyl-pyridine] | C (%-Inhibition >40% up to ≤75%) | 
CCC1(S(=O)(=O)c2cccc(C(F)(F)F)c2)CCOC(c2ccc(C)nc2C)C1 (centres unmarked) [SC-318, 3-[4-Ethyl-4-[[3-(trifluoromethyl)phenyl]sulfonyl]-tetrahydro-pyran-2-yl]-2,6-dimethyl-pyridine] | B (%-Inhibition >75% up to ≤95%) | 
CCC1(S(=O)(=O)c2cccc(C(F)(F)F)c2)CCOC(c2cccc(C)n2)C1 (centres unmarked) [SC-324, 2-[4-Ethyl-4-[[3-(trifluoromethyl)phenyl]sulfonyl]-tetrahydro-pyran-2-yl]-6-methyl-pyridine] |  | 75 to 95
CC1(S(=O)(=O)c2cccc(C(F)(F)F)c2)CCOC(c2cncc(C3CC3)c2)C1 (centres unmarked) [SC-325, 3-Cyclopropyl-5-[4-methyl-4-[[3-(trifluoromethyl)phenyl]sulfonyl]-tetrahydro-pyran-2-yl]-pyridine] |  | > 95
CC1(S(=O)(=O)c2cccc(C(F)(F)F)c2)CCOC(c2cnc(C3CC3)cn2)C1 (centres unmarked) [SC-327, 2-Cyclopropyl-5-[4-methyl-4-[[3-(trifluoromethyl)phenyl]sulfonyl]-tetrahydro-pyran-2-yl]-pyrazine] |  | 75 to 95
CC1(S(=O)(=O)c2cccc(C(F)(F)F)c2)CCOC(c2cnc(C3CC3)cn2)C1 (centres unmarked) [SC-329, 2-Cyclopropyl-5-[4-methyl-4-[[3-(trifluoromethyl)phenyl]sulfonyl]-tetrahydro-pyran-2-yl]-pyrazine] | A (%-Inhibition >95%) | 
CN(C)c1ccc(C2CC(C)(S(=O)(=O)c3cccc(C(F)(F)F)c3)CCO2)cn1 (centres unmarked) [SC-330, Dimethyl-[5-[4-methyl-4-[[3-(trifluoromethyl)phenyl]sulfonyl]-tetrahydro-pyran-2-yl]-pyridin-2-yl]-amine] |  | 75 to 95
CN(C)c1ccc(C2CC(C)(S(=O)(=O)c3cccc(C(F)(F)F)c3)CCO2)cn1 (centres unmarked) [SC-331, Dimethyl-[5-[4-methyl-4-[[3-(trifluoromethyl)phenyl]sulfonyl]-tetrahydro-pyran-2-yl]-pyridin-2-yl]-amine] | A (%-Inhibition >95%) | 
CCC1(S(=O)(=O)c2cccc(C(F)(F)F)c2)CCOC(c2cnc(C3CC3)cn2)C1 (centres unmarked) [SC-332, 2-Cyclopropyl-5-[4-ethyl-4-[[3-(trifluoromethyl)phenyl]sulfonyl]-tetrahydro-pyran-2-yl]-pyrazine] |  | 75 to 95
Cc1ccc(C2CC(S(=O)(=O)c3cccc(C(F)(F)F)c3)CCO2)c(C)n1 (centres unmarked) [SC-335, 2,6-Dimethyl-3-[4-[[3-(trifluoromethyl)phenyl]sulfonyl]-tetrahydro-pyran-2-yl]-pyridine] |  | 40 to 75
CC1(S(=O)(=O)c2cccc(C(F)(F)F)c2)CCOC(c2ccc(S(C)(=O)=O)nc2)C1 (centres unmarked) [SC-336, 2-Methylsulfonyl-5-[4-methyl-4-[[3-(trifluoromethyl)phenyl]sulfonyl]-tetrahydro-pyran-2-yl]-pyridine] | C (%-Inhibition >40% up to ≤75%) | 
CC1(S(=O)(=O)c2cccc(C(F)(F)F)c2)CCOC(c2ccc(S(C)(=O)=O)nc2)C1 (centres unmarked) [SC-338, 2-Methylsulfonyl-5-[4-methyl-4-[[3-(trifluoromethyl)phenyl]sulfonyl]-tetrahydro-pyran-2-yl]-pyridine] | B (%-Inhibition >75% up to ≤95%) | 
CC(C)Oc1ccc(C2CC(S(=O)(=O)c3cccc(C(F)(F)F)c3)CCO2)cn1 (centres unmarked) [SC-339, 2-Isopropoxy-5-[4-[[3-(trifluoromethyl)phenyl]sulfonyl]-tetrahydro-pyran-2-yl]-pyridine] |  | > 95
